Paper PMC4527783 (PLoS ONE, 2015)

Tests used:
[1] = biological target: Human NOP Rluc-tagged fusion protein (N/OFQ peptide receptor fused to Renilla luciferase) (human) (UniProt P41146)
NOP receptor = details: cited from earlier work
mouse vas deferens = details: isolated mouse vas deferens; cited from earlier work
Description: On comparing the data with a wider range of pharmacological assays carried in vitro or in vivo, noticeable discrepancies are only apparent for a number of synthetic peptides that are known as NOP partial agonists. Such divergences are likely explained by the variations in stimulus/response coupling efficiency that characterize different pharmacological preparations. In fact, in accordance with classical receptor theory, the effect of a partial agonist can range from none to an almost full response, depending on the extent of amplification that the sensitivity of the signaling pathway exerts on ... || Also the estimates of antagonist potency derived from BRET analysis were in substantial agreement with similar determinations made in a variety of different pharmacological studies. […] We found, however, that a 3-fold increase in ...

Human NOP Rluc-tagged fusion protein (N/OFQ peptide receptor fused to Renilla luciferase) (human), sequence (P41146 whole entry, the tested form may be a part): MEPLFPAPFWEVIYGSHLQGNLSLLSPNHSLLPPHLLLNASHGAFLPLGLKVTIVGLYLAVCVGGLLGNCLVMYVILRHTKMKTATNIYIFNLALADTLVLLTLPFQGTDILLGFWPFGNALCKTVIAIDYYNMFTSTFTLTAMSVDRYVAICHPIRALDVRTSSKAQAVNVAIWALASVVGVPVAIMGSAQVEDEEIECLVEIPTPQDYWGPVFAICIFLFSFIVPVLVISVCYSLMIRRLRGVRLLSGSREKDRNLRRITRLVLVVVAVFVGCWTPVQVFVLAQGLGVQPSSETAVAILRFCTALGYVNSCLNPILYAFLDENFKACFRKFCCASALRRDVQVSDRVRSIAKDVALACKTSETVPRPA

Compound | pA2, rightward shift of the concentration-response curve of N/OFQ for arrestin coupling (BRET, whole cells); value as the sentence prints it, differs from Table 3 (pA2 (-log10 M)) [1] | antagonist potency estimate (pKB), [^35S]GTPγS binding (NOP receptor) | reversibility of antagonist action on washing (mouse vas deferens)
UFP-101 (peptide) | 9.42 |  | 
Cc1cccc2c1CC[C@H](CN1CCC(c3c(Cl)cccc3Cl)CC1)C[C@@H]2O [SB-612111, (-)-cis-1-methyl-7-[[4-(2,6-dichlorophenyl)piperidin-1-yl]methyl]-6,7,8,9-tetrahy dro-5H-benzocyclohepten-5-ol] |  | 9.70 | remains unchanged even after 3 hours of repeated washing
